Measured values reported in ChEMBL document CHEMBL1201862, “PubChem BioAssay data set” (2004).
Values belong to the compound of their own block, whether it stands above or below them. Active and inactive are the calls of the source.

Tests used:
[1] = biological target: T1, Corticotropin-releasing factor receptor 2/Corticotropin-releasing factor-binding protein (Homo sapiens, UniProt P24387+Q13324); test: Dose Response confirmation of uHTS hits for small molecule antagonists of the CRF-binding protein and CRF-R2 receptor complex.; type: functional; details: read-out: IC50_Mean
T1 sequence (Q13324 whole entry): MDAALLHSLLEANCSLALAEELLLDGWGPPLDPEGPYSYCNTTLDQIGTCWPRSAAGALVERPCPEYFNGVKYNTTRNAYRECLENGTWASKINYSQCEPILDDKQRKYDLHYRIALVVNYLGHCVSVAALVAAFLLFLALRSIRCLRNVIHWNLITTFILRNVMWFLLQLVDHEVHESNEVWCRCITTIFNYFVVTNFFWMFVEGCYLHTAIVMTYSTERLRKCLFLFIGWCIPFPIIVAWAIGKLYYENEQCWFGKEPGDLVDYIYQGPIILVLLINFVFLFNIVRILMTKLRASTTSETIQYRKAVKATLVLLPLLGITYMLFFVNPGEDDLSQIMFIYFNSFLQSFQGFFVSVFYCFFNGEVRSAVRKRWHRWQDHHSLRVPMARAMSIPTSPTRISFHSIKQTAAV
T1 sequence (P24387 whole entry): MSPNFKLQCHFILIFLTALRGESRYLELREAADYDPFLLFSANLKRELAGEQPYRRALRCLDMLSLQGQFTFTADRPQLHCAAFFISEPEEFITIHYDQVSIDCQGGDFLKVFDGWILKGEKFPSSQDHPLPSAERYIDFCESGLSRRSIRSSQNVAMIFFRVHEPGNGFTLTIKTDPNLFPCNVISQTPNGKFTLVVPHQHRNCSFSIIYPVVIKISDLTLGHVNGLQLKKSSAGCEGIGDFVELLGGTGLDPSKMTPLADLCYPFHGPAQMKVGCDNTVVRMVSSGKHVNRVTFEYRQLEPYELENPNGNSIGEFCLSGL

[2] = biological target: T1, Corticotropin-releasing factor receptor 2/Corticotropin-releasing factor-binding protein; test: activators of CRF receptor 2 with binding protein – uHTS hits, confirmation (AID 602473); type: functional; details: read-out: EC50_Mean
[3] = biological target: T2, Cytochrome P450 1A2 (Homo sapiens, UniProt P05177);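 also: PubChem cytochrome P450 panel assay, CYP1A2 panel member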
T2 sequence (P05177 whole entry): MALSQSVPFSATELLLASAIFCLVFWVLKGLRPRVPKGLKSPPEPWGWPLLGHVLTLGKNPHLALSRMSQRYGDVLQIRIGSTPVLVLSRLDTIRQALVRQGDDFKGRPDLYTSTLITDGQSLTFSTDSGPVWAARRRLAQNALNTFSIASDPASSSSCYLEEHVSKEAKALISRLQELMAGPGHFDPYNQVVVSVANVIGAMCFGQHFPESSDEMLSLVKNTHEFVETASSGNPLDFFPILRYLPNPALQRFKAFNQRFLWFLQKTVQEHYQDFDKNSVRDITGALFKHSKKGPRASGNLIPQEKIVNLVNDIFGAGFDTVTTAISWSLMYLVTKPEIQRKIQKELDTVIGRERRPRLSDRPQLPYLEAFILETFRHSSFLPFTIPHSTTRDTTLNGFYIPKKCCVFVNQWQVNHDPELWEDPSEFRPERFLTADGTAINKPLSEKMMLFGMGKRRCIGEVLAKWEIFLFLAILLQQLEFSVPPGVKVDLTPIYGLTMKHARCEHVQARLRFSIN

[4] = biological target: Cytochrome P450 2C19 (Homo sapiens, UniProt P33261); test: Cytochrome panel assay with activity outcomes. Panel member name: p450-cyp2c19 Compounds with AC50 equal or less than 10 uM are considered active; type: functional
[5] = biological target: Cytochrome P450 3A4 (Homo sapiens, UniProt P08684);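 also: CYP3A4 tested as one member of a cytochrome P450 panel screen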
[6] = biological target: Cytochrome P450 2C9 (Homo sapiens, UniProt P11712)
[7] = NIH-3T3 fibroblast cytotoxicity, dose response, cytotoxicity control, cell-based, fluorescence, Alamar Blue, secondary assay (AID 2327); type: functional;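 also: NIH-3T3 mouse fibroblasts cultured with fluconazole at 8 µg/mL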
[8] = fluconazole-exposed Candida albicans growth modulators – fluorescence, retest, confirmation (AID 2467); type: functional, cell-based
[9] = test system: Streptococcus; test: GAS UMAA2166 growth inhibition – luminescence, BacTiterGlo, counter-screen for streptokinase expression inhibitor project, dose response (AID 1915); type: functional, organism-based;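 also: potency for reduction of bacterial viability or growth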
[10] = test system: Streptococcus sp. 'group A'; test: Streptococcus pyogenes SK(-)GAS viability under kanamycin – luminescence, BacTiterGlo, confirmation, counter-screen for streptokinase expression inhibitor project, dose response (AID 1900); type: functional, organism-based

Cytochrome P450 2C19, sequence (P33261 whole entry): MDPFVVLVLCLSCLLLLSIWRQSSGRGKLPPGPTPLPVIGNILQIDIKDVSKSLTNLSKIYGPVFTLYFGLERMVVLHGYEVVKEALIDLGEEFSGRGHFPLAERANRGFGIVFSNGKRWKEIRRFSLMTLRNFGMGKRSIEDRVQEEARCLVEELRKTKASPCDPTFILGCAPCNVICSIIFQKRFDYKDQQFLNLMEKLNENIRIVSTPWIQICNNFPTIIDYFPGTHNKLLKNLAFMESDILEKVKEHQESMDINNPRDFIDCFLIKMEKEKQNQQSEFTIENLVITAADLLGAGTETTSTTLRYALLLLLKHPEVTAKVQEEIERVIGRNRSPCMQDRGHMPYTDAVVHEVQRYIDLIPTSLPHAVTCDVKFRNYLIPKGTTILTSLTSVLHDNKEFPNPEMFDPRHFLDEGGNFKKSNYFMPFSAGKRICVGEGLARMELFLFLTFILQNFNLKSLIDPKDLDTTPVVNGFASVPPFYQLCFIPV
Cytochrome P450 3A4, sequence (P08684 whole entry): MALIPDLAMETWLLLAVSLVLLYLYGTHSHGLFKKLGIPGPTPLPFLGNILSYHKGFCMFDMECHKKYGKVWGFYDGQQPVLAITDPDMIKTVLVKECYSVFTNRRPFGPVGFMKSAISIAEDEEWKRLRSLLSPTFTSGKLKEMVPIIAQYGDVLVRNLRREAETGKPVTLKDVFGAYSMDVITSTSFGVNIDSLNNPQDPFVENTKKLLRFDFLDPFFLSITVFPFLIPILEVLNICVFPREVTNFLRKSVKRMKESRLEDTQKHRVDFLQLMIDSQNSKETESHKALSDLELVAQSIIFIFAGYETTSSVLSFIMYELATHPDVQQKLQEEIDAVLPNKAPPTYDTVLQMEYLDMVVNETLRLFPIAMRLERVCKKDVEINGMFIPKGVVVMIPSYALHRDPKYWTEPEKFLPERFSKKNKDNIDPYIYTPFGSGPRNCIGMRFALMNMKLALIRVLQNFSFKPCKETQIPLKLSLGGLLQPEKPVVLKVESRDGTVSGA
Cytochrome P450 2C9, sequence (P11712 whole entry): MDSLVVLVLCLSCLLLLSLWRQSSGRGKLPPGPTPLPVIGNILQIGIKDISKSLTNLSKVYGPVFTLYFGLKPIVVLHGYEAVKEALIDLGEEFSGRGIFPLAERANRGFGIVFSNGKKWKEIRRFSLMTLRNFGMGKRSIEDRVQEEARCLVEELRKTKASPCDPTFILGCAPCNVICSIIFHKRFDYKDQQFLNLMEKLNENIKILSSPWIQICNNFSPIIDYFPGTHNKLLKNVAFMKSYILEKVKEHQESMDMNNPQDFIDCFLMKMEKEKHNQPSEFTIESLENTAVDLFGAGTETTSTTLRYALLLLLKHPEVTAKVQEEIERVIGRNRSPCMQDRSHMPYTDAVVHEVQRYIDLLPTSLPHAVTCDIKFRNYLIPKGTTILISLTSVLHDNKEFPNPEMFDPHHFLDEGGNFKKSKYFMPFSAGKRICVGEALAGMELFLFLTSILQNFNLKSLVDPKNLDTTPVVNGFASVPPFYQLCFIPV

IC50 [1]: > 47.1 µM (inactive)
EC50 [2]: 34 µM (active)
Compound: O=C1CCc2cc(S(=O)(=O)N3CCC(C(=O)NC4CCCCCCC4)CC3)ccc2N1

AC50 [3]: 15.8 µM (inconclusive)
AC50 ([4]; read-out: AC50): 0.00631 µM (inconclusive)
AC50 [5]: 15.8 µM (inconclusive)
Compound: COc1cccc(Cn2c(=O)c(-c3cccs3)nc3cnc(N(C)C)nc32)c1

AC50 [6]: 7.94 µM (inconclusive)
Compound: Cc1cccc2c1Oc1ccccc1[C@@H]2NC(=O)c1ccc([N+](=O)[O-])cc1

AC50 [5]: 14.1 µM (inconclusive)
Compound: COc1ccc(NC(=O)c2cc(S(=O)(=O)N3CCS(=O)(=O)CC3)ccc2Cl)cc1

IC50 [1]: > 47.1 µM (inactive)
EC50 [2]: > 53 µM (inactive)
Compound: CC#CCCCC(=O)Nc1ccccc1C(=O)O

AC50 [3]: 31.6 µM (inconclusive)
Compound: CC[N+](CC)(CC)CCOc1ccc(/C=C\c2ccccc2)cc1

IC50 [1]: > 47.1 µM (inactive)
EC50 [2]: > 53 µM (inactive)
Compound: CCN(CC(=O)Nc1c(F)cccc1F)C(=O)c1ccc2c(=O)n3c(nc2c1)CCC3

AC50 [5]: 25.1 µM (inconclusive)
AC50 [6]: 39.8 µM (inconclusive)
Compound: Cc1nnc(-c2cnn(-c3ccccc3)c2N)n1Cc1ccccc1

AC50 ([4]; read-out: AC50): 39.8 µM (inconclusive)
AC50 [6]: 12.6 µM (inconclusive)
Compound: O=C(COC(=O)c1cnccn1)NCc1ccccc1

AC50 [4]: inconclusive
AC50 [5]: 28.2 µM (inconclusive)
Compound: CCN1CCN(C(=O)C2c3cc(OC)c(OC)cc3C(=O)N3CCc4ccccc4C23)CC1 (configuration not stated)

AC50 [5]: 25.1 µM (inconclusive)
Compound: C=CC/N=C1\CC(C)(C)CC(O)=C1C(=O)c1ccccc1

AC50 [3]: 12.6 µM (inconclusive)
Compound: N=C(N)NCc1cccc(I)c1 [IOBENGUANE]

The next lines start with the compound.

Compound: CCC(C)NS(=O)(=O)c1ccc(OCC(=O)Nc2ccc3c(c2)OCCO3)cc1 (configuration not stated)
AC50 ([4]; read-out: AC50): 7.08 µM (inconclusive)
AC50 [5]: 15.8 µM (inconclusive)

Compound: CCOc1ccc(NC(=O)Nc2cc(C)ccc2OC)cc1
IC50 [1]: > 47.1 µM (inactive)
EC50 [2]: > 53 µM (inactive)

Compound: O=C(/C=C\c1ccc(-c2cccc([N+](=O)[O-])c2)o1)N1CCOCC1
EC50 [7]: > 150 µM (inactive)
EC50 [8]: > 38 µM (not active)

Compound: COc1ccccc1CN1CCCC2(CCN(C(=O)Oc3ccccc3)CC2)C1
AC50 [5]: 15.8 µM (inconclusive)

Compound: Cc1ccc(C(=O)CC(=O)c2ccc(C(C)(C)C)cc2)cc1
EC50 [7]: > 160 µM (inactive)
EC50 [8]: > 38 µM (not active)

Compound: O=C(c1ccc2c(=O)n(Cc3ccco3)c(=S)[nH]c2c1)N1CCN(c2ccccc2)CC1
AC50 [3]: 3.16 µM (inconclusive)
AC50 [6]: 25.1 µM (inconclusive)

Compound: CC(CCc1ccccc1)NC(=O)C(=O)NCCO (configuration not stated)
AC50 [6]: 0.794 µM (inconclusive)

Compound: O=C(Nc1cccc(C(F)(F)F)c1)c1cccnc1
EC50 [7]: > 160 µM (inactive)
EC50 [8]: 4.39 µM (active)

Compound: COc1ccccc1N(CC(=O)NCC1CCCO1)C(=O)CNS(=O)(=O)c1ccc(C)cc1 (configuration not stated)
AC50 ([4]; read-out: AC50): 35.5 µM (inconclusive)
AC50 [6]: 31.6 µM (inconclusive)

Compound: CC(C)CNS(=O)(=O)c1cc(C(=O)N2CC(C)OC(C)C2)c(Cl)cc1Cl (configuration not stated)
AC50 ([4]; read-out: AC50): 25.1 µM (inconclusive)
AC50 [6]: 25.1 µM (inconclusive)

Compound: Cc1c(Nc2scc(-c3ccccc3)[n+]2-c2ccccc2)c(=O)n(-c2ccccc2)n1C
EC50 [7]: 18 µM (active)
EC50 [8]: 0.111 µM (active)

Compound: Cc1ccc(NC(=O)COC(=O)CCC(=O)c2cccs2)c(Br)c1
IC50 [1]: > 47.1 µM (inactive)
EC50 [2]: > 53 µM (inactive)

Compound: Cc1cc(OCc2nc(N)nc(N)c2-c2ccc(Cl)c(Cl)c2)ccc1[N+](=O)[O-]
AC50 [3]: 5.01 µM (inconclusive)
AC50 [5]: 3.98 µM (inconclusive)

Compound: C/C(CC(=O)Nc1ccc(Cl)c(C(F)(F)F)c1)=N\NC(=O)c1ccccc1O
EC50 [9]: 3.68 µM (active)
EC50 [10]: 2.77 µM (active)

Compound: COc1ccccc1C(=O)O/N=C1/CCCc2c1ccc(OC)c2[N+](=O)[O-]
AC50 [5]: 22.4 µM (inconclusive)
